The text below walks through data of US7977056B2, “Methods of identifying stimulants for biogenic methane production from hydrocarbon-bearing formations” (Synthetic Genomics, Inc., priority 2008, dated 2011).

Entries after “also recorded” stand apart in the source; their conditions may differ.

The first assay relates to defined microbial assemblage. In words: Stimulation of methane production by a defined microbial assemblage grown on coal as sole carbon source. The class given is cell-based. Conditions: defined microbial assemblage, in vitro culture with coal as sole carbon source, after stimulation with the substance. As for the experimental part:
The availability of a defined microbial assemblage producing methane from coal in vitro, as well as a suite of strains capable of aerobic coal degradation prompted laboratory experiments where various stimulants were tested for their effect on methane production.
This degradation is stimulated by the addition of oxygen as reactant for the oxygenase-classes of enzymes present in some of the strains included in the DMA.
For the compound `[HH]` [H2, hydrogen], the methane production result was “increased methane production”.

For `CC(=O)O` [acetate], the methane production entry is “increased methane production”.

Turning to `OCC(O)CO` [glycerol], the methane production entry was “increased methane production”.

On to `O=O` [oxygen], for which the methane production entry is listed as “greatest increase in methane production; also recorded: increased methane production”.

Take `CN(C)C` [trimethylamine]: the methane production result is given as “increased methane production”.

The assay is the same for the next values; noted with them: oxygen applied at higher than optimal levels.
Turning to `O=O` [oxygen], the methanogenesis entry is reported as “represses methanogenesis”.
